Data: the COVID Moonshot data (paper PMC11187573), “Identification of SARS-CoV-2 Mpro inhibitors through deep reinforcement learning for de novo drug design and computational chemistry approaches” (RSC Medicinal Chemistry, 2024)

Legend:
[1] = molecular target: SARS-CoV-2 Main Protease (SARS-CoV-2) (UniProt P0DTD1)
Method: Briefly, compounds were seeded into assay-ready plates (Greiner 384PP, cat# 781280) using an ECHO 650T dispenser and DMSO was back-filled for a uniform concentration in assay plates (DMSO concentration < 1%, final volume = 500 nL.). […] After a quick centrifugation step (1000 rpm, 15 s) the plate is incubated for 15 min at room temperature. […] After centrifugation (1000 rpm, 14 s) the reaction is incubated for 10 min (11-mer) or 5 min (37-mer) at room temperature before quenching with 10 % formic acid. The reactions are analysed with MS using RapidFire (RF) 365 high-throughput sampling robot (Agilent) connected to an iFunnel Agilent 6550 accurate mass quadrupole time-of-flight (Q-TOF) mass spectrometer using electrospray. […] Dose response curves uses an 11-point range of 100--0.0017 µM inhibitor concentrations. RapidFire integrator software (Agilent) was used to extract the charged states from the total ion chromatogram data followed by peak integration. For the 11-mer peptide the m/z (+1) charge states of both the substrate (1191.67 Da) and cleaved N-terminal product TSAVLQ (617.34 Da) were used and the 37-mer peptide the m/z (+2) charge states of the substrate (3960.94 Da) and m/z (+1) of the cleaved C-terminal product [sequence] (1125.57 Da). Percentage conversion (product peak integral / (product peak integral + substrate peak integral))*100) and percentage inhibitions were calculated and normalised against DMSO control with deduction of any background signal in Microsoft Excel. IC50s were calculated using Levenberg–Marquardt algorithm used to fit a restrained Hill equation to the dose-response data with both GraphPad PRISM and CDD.

[2] = molecular target: SARS-CoV-2 Main Protease (SARS-CoV-2) (UniProt P0DTD1); remark: listed apart in the source

Row | SMILES | relative solubility at 20 uM | relative solubility at 100 uM | inhibition ([1]; 50.0 µM) [%] | inhibition ([2]; 20.0 µM) [%] | inhibition ([2]; 50.0 µM) [%] | inhibition ([1]; 20.0 µM) [%] | IC50 [1] [µM] | IC50 [2] [µM]
1 | Cn1cnnc1NC(=O)Cc1cccc(Cl)c1F | 0.98 | 0.99 | -13.1 | 5.1 | -1.13 |  |  | 
2 | Cc1ccncc1NC(=O)C1C2CCOCC21 (stereo not given) | 1 | 1 | 0 | -18.9 | -10.8 |  |  | 
3 | C=CC(=O)N(c1ccc(C(C)(C)C)cc1)C(C(=O)Nc1ccc2c(c1)OCCO2)c1cccnc1 (stereo not given) | 0.98 | 0.75 | 30.8 | 2.83 | 18.1 | 7.68 |  | 
4 | O=C(Cc1cccnc1)Nc1cc(Cl)ccc1O | 1.01 | 0.98 | 6.62 | -1.54 | 23.3 |  |  | 
5 | Cc1ccncc1NC(=O)CCc1ccccn1 | 1 | 1 | 11.4 | -0.904 | -28.6 |  |  | 
6 | C=CC(=O)NCc1ccc(C(C)NC(=O)OC(C)(C)C)cc1 (stereo not given) | 1 | 1.01 | 0 |  | 6.84 | 0 |  | 
7 | C=CC(=O)N(c1ccc(C(C)(C)C)cc1)C(C(=O)NC(C)(C)C)c1cncc(Br)c1C (stereo not given) | 0.98 | 0.92 | 35.3 | -4.32 | 7.84 | 12.9 |  | 
8 | O=C(Cc1cccc(Cl)c1)Nn1cnnc1 | 1 | 1 | 0 | -9.88 | -21.6 |  |  | 
9 | Cc1noc([C@@H](C)S(=O)(=O)Cc2cccc(C(F)(F)F)c2)n1 (stereo in doubt) | 1.01 | 1 | 0 | -7.05 | -6.94 |  |  | 
10 | O=C(CCl)N1CCN(Cc2cccc(Cl)c2)CC1 | 1 | 1 | 100 |  | 108 | 99.8 | 0.545 | 2.54
11 | O=C(Cc1c[nH]c2ncccc12)NCc1cccc(Cl)c1 | 1 | 0.96 |  | 7.73 | 9.03 | 1.98 |  | 
12 | O=C(CCl)N1CCOc2cccc(-c3cccnc3)c21 | 1 | 1 | -5.89 | 1.76 | 7.44 |  |  | 
13 | C=CC(=O)N(c1ccc(C(F)(F)F)cc1)C(C(=O)Nc1ccccc1Br)c1cccnc1 (stereo not given) | 0.94 | 0.83 |  | 15.6 | 22 | 9.6 |  | 
14 | C=CC(=O)N(c1ccc(C(C)(C)C)cc1)C(C(=O)NCCCOC)c1cccnc1 (stereo not given) | 0.99 | 0.98 | 39.5 | 3.35 | 19.4 | 12.2 |  | 
15 | CS(=O)(=O)Nc1cccc(C(=O)Oc2cccc(N3CCCC3=O)c2)c1 | 0.99 | 0.86 | 11.2 |  | 35.7 | 0 |  | 
16 | C=CC(=O)N(c1ccc(C(C)(C)C)cc1)C(C(=O)Nc1ccc(OC)cc1OC)c1cccnc1 (stereo not given) | 0.98 | 0.84 | 45.9 | 48.9 | 41.6 | 5.03 |  | 
17 | O=C(CCl)N1CCN(C(c2ccccc2)C2CCCCC2)CC1 (stereo not given) | 0.98 | 0.78 | 95.6 | 95.8 | 98.1 |  | 0.644 | 4.13
18 | O=C(NCCNc1cccnn1)c1ccccc1NS(=O)(=O)c1cc(F)ccc1F | 1 | 1 | 12.1 |  | 7.83 | 0 |  | 
19 | COc1ccccc1N1CCN(C(=O)c2cc(=O)[nH]c3ccccc23)CC1 | 1 | 0.99 | 14.8 | 39 | 62.8 |  |  | 

Row | SMILES | relative solubility at 20 uM | relative solubility at 100 uM | inhibition ([1]; 50.0 µM) [%] | inhibition ([2]; 20.0 µM) [%] | inhibition ([2]; 50.0 µM) [%] | inhibition ([1]; 20.0 µM) [%] | IC50 [1] [µM] | IC50 [2] [µM]
20 | CC(=O)Nc1ccc(NCC(=O)Nc2cnccc2C)cc1 | 0.96 | 0.9 | 0 | -2.21 | -24.3 |  |  | 
21 | CS(=O)(=O)Cc1ccc(C(=O)Nc2cccnc2)o1 | 1 | 1 |  | 0.469 | 6.26 | 0 |  | 
22 | N#Cc1cccc(CN2CCN(C(=O)CCl)CC2)c1 | 1.01 | 0.99 |  | 53.4 | 85.2 | 64.3 | 12.2 | 
23 | O=C(Cc1cccnc1)Nc1cccc(OC2CC(=O)N2)c1 (stereo not given) | 0.97 | 0.99 | 26.4 | 39.6 | 71.8 |  |  | 
24 | Cc1ccncc1NC(=O)Cc1cccc(OC(F)(F)F)c1 | 0.98 | 0.98 | 12.6 | -3.16 | -22.5 |  |  | 
25 | CC1(C)CC(C(=O)Nc2nncn2C2CC2)c2ccccc2O1 (stereo not given) | 1 | 0.98 | 0 | -0.71 | -5.02 |  |  | 
26 | COc1ccc2nc(C)cc(C(=O)NN)c2c1 | 1 | 1 | 0 |  | 22.2 | 0 |  | 
27 | COc1ccc(-c2cccc(S(=O)(=O)N3CCN(C(C)=O)CC3)c2)cc1 | 0.95 | 0.93 | 0 | -3.55 | 2.93 |  |  | 
28 | C=CC(=O)N(c1cc(C(C)(C)C)on1)C(C(=O)NCCc1cccc(F)c1)c1cncc(Cl)c1 (stereo not given) | 0.97 | 0.56 | 100 | 15.8 | 40.2 |  | 4.78 | 
29 | CCC(NC(=O)NCc1cnccn1)c1ccccc1OCC(=O)N1CCCC1 (stereo not given) | 1 | 1 | 9.2 |  | 7.61 | 0 |  | 
30 | O=C(Nc1cnccc1Cl)c1cc(Cl)ccc1O | 1 | 0.98 | 65.9 | 66.8 | 75.2 | 15.5 |  | 
31 | C[C@H](NC(=O)[C@@H](C)c1ccc(F)c(F)c1)c1cccc(F)c1 (stereo in doubt) | 1 | 0.79 | 0 |  | -31.4 | 0 |  | 
32 | CN(C)c1ccc(N(Cc2ccsc2)C(=O)Cn2nnc3ccccc32)cc1 | 0.92 | 0.48 | 90.3 | 84.4 | 90.5 |  | 5.37 | 
33 | O=C(CCl)N1CCN(S(=O)(=O)c2c(F)cccc2F)CC1 | 0.96 | 0.88 | 99.2 | 98.7 | 104 | 98.6 | 2.62 | 
34 | C=CC(=O)N(c1ccc(C(C)(C)C)cc1)C(C(=O)NC(C)(C)C)c1cnc[nH]1 (stereo not given) | 0.99 | 0.89 | 0 | -20.2 | -23.6 | 0 |  | 
35 | O=C(Cc1c[nH]c2ncccc12)Nc1cccc(Cl)c1 | 0.99 | 0.97 |  | 5.95 | 9.34 | 0 |  | 
36 | C=CC(=O)N(c1ccc(C(C)(C)C)cc1)C(C(=O)Nc1ccc(OC)cc1C)c1cccnc1 (stereo not given) | 0.97 | 0.57 | -2.25 |  | 22.4 | 0 |  | 
37 | Cc1nn(-c2ccccc2)c(Nc2cccc(C(F)(F)F)c2)c1NS(C)(=O)=O | 0.95 | 0.97 | -10.6 | 3.18 | -5.82 |  |  | 
38 | Cc1ccncc1-c1ccc(S(N)(=O)=O)cc1 | 1 | 1 | -2.15 |  | 8.58 | -2.96 |  | 
